Test results as given in patent publication US20240190916A1, “NOVEL PEPTIDE” (HYSENSBIO, priority 2022, published 2024).

What was measured:
Type in all cases: cell-based
DMP1 gene = assay: DMP1 mRNA level by real-time PCR in human-derived mesenchymal stem cells; details: compared to untreated control
Experimental: (§1) It was cultured at 37° C. in humid air containing 5% CO2 and used for the experiment. Human mesenchymal stem cells (hBMSCs) were purchased from Lonza (LONZA, Switzerland) and used. hBMSCs were cultured in a-MEM (Invitrogen) medium supplemented with 10% heat-inactivated bovine serum.
(§2) Total RNA of human dental pulp cells and mesenchymal stem cells was isolated using a TRIzol reagent. cDNA was synthesized using 2 μg of total RNA, 1 μl of reverse transcriptase, and 0.5 μg of oligo (dT). The synthesized cDNA was used for real-time polymerase chain reaction. The real-time polymerase chain reaction was performed in ABI PRISM 7500 sequence detection system (Applied Biosystems) using SYBR GREEN PCR Master Mix (Takara, Japan). The real-time polymerase chain reaction was performed at 94° C., 1 min; 95° C., 15 sec-60° C., 34 sec was performed under the condition of repeating 40 cycles. An analysis of the results was evaluated using a comparative cycle threshold (CT) method, and primer base sequences are listed in Table 9.
(§3) BSP and DMP1 genes are used as markers for differentiation of osteoblasts and cementoblasts, and are known as important genes for calcification of a bone and cementum. The effects of each group of peptides on BSP and DMP1 mRNA expression were confirmed by a real-time PCR (Tables 11 and 12).

BSP gene = assay: BSP mRNA level by real-time PCR in human-derived mesenchymal stem cells; details: compared to untreated control
Experimental: as §1, §2, §3

DSPP gene = assay: DSPP mRNA level by real-time PCR in human dental pulp cells; details: peptide 10 ug/ml, compared to untreated control
Experimental: Human pulp tissue cells were isolated from wisdom teeth of 10 adults (18-22 years old) at Seoul National University Dental Hospital. Specifically, all experiments were performed with the patient's consent after approval from the hospital's Institutional Review Board, and wisdom teeth are cut according to a method of Jung H S et al (J Mol Histol. (2011)), exposing the pulp and isolating the pulp with forceps. The isolated pulp was minced on both sides, placed in a 60 mm dish, covered with a cover slip, and then cultured in Dulbecco's Modified Eagle medium. It is known that human dental pulp cells can differentiate into odontoblasts, osteoblasts, cementoblasts and periodontal ligament cells under various conditions (Tissue Eng Part A. 2014 April; 20(7-8): 1342-51).
as §2
The effect of each group of peptides on DSPP mRNA expression was confirmed by real-time PCR (Table 10).

Sequence | mRNA level of DMP1 gene, DMP1 gene expression, Average (DMP1 gene) [fold] | mRNA level of BSP gene, BSP gene expression, Average (BSP gene) [fold] | mRNA level of DSPP gene, Average (DSPP gene) [fold]
KYAKKKKNYK [SEQ ID NO: 33] | 7.709 | 2.092 | 1.813
KYAKKKKSYK [SEQ ID NO: 41] | 7.727 | 1.762 | 1.897
KYAKKKRNYK [SEQ ID NO: 34] | 7.031 | 2.136 | 2.361
KYAKKKRSYK [SEQ ID NO: 42] | 7.367 | 1.882 | 1.811
KYAKKRKNYK [SEQ ID NO: 35] | 7.527 | 2.372 | 1.572
KYAKKRKSYK [SEQ ID NO: 43] | 6.791 | 2.011 | 1.620
KYAKKRRNYK [SEQ ID NO: 37] | 7.032 | 1.999 | 1.67
KYAKKRRSYK [SEQ ID NO: 45] | 7.309 | 1.878 | 2.125
KYAKRKKNYK [SEQ ID NO: 36] | 6.999 | 2.207 | 1.702
KYAKRKKSYK [SEQ ID NO: 44] | 7.663 | 1.699 | 2.121
KYAKRKRNYK [SEQ ID NO: 40] | 7.635 | 2.102 | 2.121
KYAKRKRSYK [SEQ ID NO: 48] | 6.757 | 1.773 | 2.516
KYAKRRKNYK [SEQ ID NO: 38] | 7.777 | 2.507 | 1.705
KYAKRRKSYK [SEQ ID NO: 46] | 7.294 | 1.863 | 1.836
KYAKRRRNYK [SEQ ID NO: 39] | 6.989 | 2.293 | 2.015
KYAKRRRSYK [SEQ ID NO: 47] | 7.107 | 2.063 | 1.620
KYARKKKNYK [SEQ ID NO: 49] | 6.789 | 1.971 | 1.798
KYARKKKSYK [SEQ ID NO: 57] | 6.059 | 1.679 | 1.886
KYARKKRNYK [SEQ ID NO: 50] | 6.109 | 1.901 | 1.661

Sequence | mRNA level of DMP1 gene, DMP1 gene expression, Average (DMP1 gene) [fold] | mRNA level of BSP gene, BSP gene expression, Average (BSP gene) [fold] | mRNA level of DSPP gene, Average (DSPP gene) [fold]
KYARKKRSYK [SEQ ID NO: 58] | 5.999 | 1.811 | 1.811
KYARKRKNYK [SEQ ID NO: 51] | 5.272 | 1.899 | 2.572
KYARKRKSYK [SEQ ID NO: 59] | 5.510 | 1.629 | 2.120
KYARKRRNYK [SEQ ID NO: 53] | 6.483 | 2.036 | 2.037
KYARKRRSYK [SEQ ID NO: 61] | 5.787 | 1.832 | 1.525
KYARRKKNYK [SEQ ID NO: 52] | 5.991 | 1.999 | 2.102
KYARRKKSYK [SEQ ID NO: 60] | 5.078 | 1.991 | 2.195
KYARRKRNYK [SEQ ID NO: 56] | 5.798 | 2.016 | 2.021
KYARRKRSYK [SEQ ID NO: 64] | 6.123 | 2.021 | 1.606
KYARRRKNYK [SEQ ID NO: 54] | 6.531 | 2.1 | 2.005
KYARRRKSYK [SEQ ID NO: 62] | 5.333 | 1.769 | 1.836
KYARRRRNYK [SEQ ID NO: 55] | 6.111 | 1.773 | 1.921
KYARRRRSYK [SEQ ID NO: 63] | 5.727 | 2.237 | 2.120
KYKAKKKSYK [SEQ ID NO: 9] | 9.869 | 2.084 | 3.057
KYKAKKRNYK [SEQ ID NO: 2] | 10.361 | 2.713 | 7.361
KYKAKKRSYK [SEQ ID NO: 10] | 9.998 | 1.998 | 3.811
KYKAKRKNYK [SEQ ID NO: 3] | 11.271 | 2.715 | 8.572
KYKAKRKSYK [SEQ ID NO: 11] | 8.795 | 2.226 | 3.362
KYKAKRRNYK [SEQ ID NO: 5] | 11.001 | 2.77 | 6.67
